Reference: patent US4820726A, “Oxaloamino substituted fluorinated resorcinol ethers and anti-allergic and anti-inflammatory use thereof” (Ciba-Geigy Corporation, priority 1985, dated 1989)

Assays:
[1] = system: LTD4 -induced contractions of the guinea-pig ileum; test: Inhibiting effect on LTD4-induced contractions of the guinea-pig ileum; assay type: cell-based; settings: Cavia porcellus; isolated guinea-pig ileum, Tyrode solution, 38° C.; read-out: IC50, concentration which reduces LTD4 -induced contractions to 50% of the starting value
Description: Thus, they have an antiallergic action based on a pronounced LTD4 -(leucotriene-D4)- and PAF-(PAF-acetoether)-antagonism.
Inhibiting effect on LTD4 -induced contractions of the guinea-pig ileum
Contractions are triggered off by synthetic LTD4 (leucotriene D4, potassium salt) on ileum segments which have been taken from guinea-pigs with a body weight of 300 to 400 g, fixed in an organ bath in Tyrode solution (38° C., gassing with 95% of O2 and 5% of CO2) and loaded with […], and the degree of the contractions is recorded. The degree of inhibition of these contractions to be attributed to the LTD4 -antagonistic action of the test substance is measured. The concentration, designated the IC50, of the test substance which reduces LTD4 -induced contractions to 50% of the starting value is determined.

[2] = target: phospholipase A2 from human leucocytes; test: In vitro test for the determination of the inhibition of phospholipase A2 from human leucocytes; assay type: biochemical; settings: enzyme from human leucocytes, 14C-oleic acid labelled E. coli phospholipids, pH 7, 37° C., 1 hour; read-out: IC50, concentration which causes an inhibition of 50% of the control activity of phospholipase A2
Excerpt: In vitro test for the determination of the inhibition of phospholipase A2 from human leucocytes
Neutrophilic polymorphonuclear human leucocytes are isolated, starting from "buffy coats" by multi-stage fractional sedimentation and are deep-frozen.The phospholipase A2 is extracted from the cell suspension by homogenisation with the addition of ice-cold 0.36N H2 SO4 in 2M NaCl, and the supernatant obtained after centrifugation at 10,000 g is dialysed against sodium acetate buffer, pH 4.5.
To determine the enzyme activity, the enzyme (10-30 μg of protein) is incubated in 0.1M tris/HCl buffer, pH 7, with the addition of 1 mM CaCl2 and substrate consisting of phospholipids (2 μM), radioactively labelled biosynthetically with ^14 C-oleic acid, of Escherichia coli, at 37° C. for 1 hour. The reaction is stopped by addition of Dole reagent (isopropanol/heptane/1N H2 SO4 40:10:1, volume/volume) and the ^14 C-oleic acid released selectively by phospholipase A2 is extracted. The substrate also co-extracted is removed completely by filtration of the extract through a silica gel column. The ^14 C-oleic acid in the eluate is determined by radiometry.
To determine an inhibiting effect of test substances on the phospholipase A2, these are added to the incubation batch as solutions in water, dimethylsulfoxide (final concentration in the batch up to 5 vol %) or ethanol (final concentration in the batch up to 2.5 vol %). The action potency of the test substances is expressed by the IC50, i.e. the concentration which causes an inhibition of 50% of the control activity. The IC50 is determined graphically by plotting the percentage inhibition on the ordinate against the logarithm of the concentration (μM) on the abscissa.

IC50 [1] [µM] | IC50 [2] [µM] | SMILES
0.087 | > 100 | CCCc1c(OCC(O)COc2cccc(NC(=O)C(=O)O)c2C#N)ccc(C(C)=O)c1O (centres unmarked) [N-{3-[3-(4-acetyl-3-hydroxy-2-propyl-phenoxy)-2-hydroxypropoxy]-2-cyano-phenyl}-oxamic acid, reference compound]
– | 13 | CC(=O)c1ccc(OCCCOc2cc(NC(=O)c3nnn[nH]3)c(C)cc2Cl)c(CCC(F)(F)F)c1O [N-{{3-{3-[4-acetyl-3-hydroxy-2-(3,3,3-trifluoropropyl)-phenoxy]-propoxy}-4-chloro-6-methyl-phenyl}}-1H-tetrazole-5-carboxamide]
0.01 | 12 | CC(=O)c1ccc(OCCCOc2cc(NC(=O)c3nnn[nH]3)c(C)cc2Br)c(CCC(F)(F)F)c1O [N-{{3-{3-[4-acetyl-3-hydroxy-2-(3,3,3-trifluoropropyl)phenoxy]-propoxy}-4-bromo-6-methyl-phenyl}}-1H-tetrazole-5-carboxamide]
